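All cell lines were grown in 96-well plates and treated with compound for 48 hours. GI50 = concentration required for 50% inhibition of growth. TGI: total growth inhibition.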

Consider 14 compounds from PubChem BioAssay (NCI).

Some test systems named below: CCRF-CEM leukemia; HL-60(TB) leukemia; MALME-3M melanoma; SN12C renal; A498 renal; U251 CNS; LOX IMVI melanoma; SK-MEL-5 melanoma; HCC-2998 colon.
Assay in all cases: DTP human tumour cell line panel, 48 h

`CC1=C(/C=C/C(C)=C/C=C/C(C)=C/C=C/C=C(C)/C=C/C=C(C)/C=C/C2=C(C)C(=O)C(O)CC2(C)C)C(C)(C)CC(O)C1=O` (centres undefined): the TGI in the test on CCRF-CEM leukemia, in the test with HL-60(TB) leukemia, in the test on MALME-3M melanoma, in the test with SN12C renal, in the test with A498 renal and in the test on U251 CNS was more than 100 µM throughout. The concentration for total growth inhibition (TGI) in the test on LOX IMVI melanoma, with SK-MEL-5 melanoma and in the test on HCC-2998 colon was more than 100 µM each time.

`CCOC(=O)C1=C(Nc2ccc(Cl)c(Cl)c2)OC/C1=N\NC(=O)Cc1ccccc1`: the TGI with CCRF-CEM leukemia, in the test with HL-60(TB) leukemia, in the test with MALME-3M melanoma, with SN12C renal, in the test with A498 renal and in the test on U251 CNS was more than 100 µM throughout. Further, the TGI in the test with LOX IMVI melanoma, with SK-MEL-5 melanoma and in the test with HCC-2998 colon was more than 100 µM each time.

As for `COc1ccc(N2C(=O)C3c4[nH]c5ccccc5c4C4CCCCCCC4C3C2=O)cc1` (centres undefined), the TGI in the test on CCRF-CEM leukemia is 21.5 µM; in the test on HL-60(TB) leukemia, 74 µM; in the test with MALME-3M melanoma, 41.4 µM; with SN12C renal it was 14.9 µM; with A498 renal it was 52.3 µM; with U251 CNS, 16.5 µM. In addition, the figures for the TGI in the test on LOX IMVI melanoma, in the test with SK-MEL-5 melanoma and in the test on HCC-2998 colon were 20.8 µM, 61.9 µM and more than 100 µM, respectively.

`CCCCCCCCCCCCCC(=O)NCC(OCC)OCC`: the TGI with CCRF-CEM leukemia, in the test with HL-60(TB) leukemia, in the test on MALME-3M melanoma, with SN12C renal, in the test with A498 renal and with U251 CNS was more than 100 µM in each case. Moreover, the TGI in the test on LOX IMVI melanoma, in the test on SK-MEL-5 melanoma and in the test with HCC-2998 colon was more than 100 µM in each case.

With `O=C1CCN2CCC(=O)c3c2c(cc2ccccc32)N1`, the TGI in the test with CCRF-CEM leukemia, in the test on MALME-3M melanoma, in the test on SN12C renal, in the test on A498 renal, in the test with U251 CNS and in the test with LOX IMVI melanoma was more than 100 µM each time. Also, the TGI in the test with SK-MEL-5 melanoma and with HCC-2998 colon was more than 100 µM each time.

In the case of `COc1cc(/C=C/c2ccc(OC)c(OC)c2OC)cc(OC)c1OC`, the total growth inhibition concentration (TGI) with CCRF-CEM leukemia is 85.8 µM; in the test on HL-60(TB) leukemia, more than 68 µM; in the test on MALME-3M melanoma, 48.7 µM; in the test with SN12C renal, more than 69.5 µM; in the test with A498 renal, more than 73.9 µM; in the test on U251 CNS it was 36.2 µM. The TGI was found to be 30.8 µM in the test with LOX IMVI melanoma, 28.5 µM in the test on SK-MEL-5 melanoma and 18.6 µM with HCC-2998 colon.

Regarding `COC(=O)C(CC(=O)c1c[nH]c2ccccc12)c1c[nH]c2ccccc12` (centres undefined), the TGI amounted to 73.7 µM with CCRF-CEM leukemia; 49.4 µM in the test with HL-60(TB) leukemia; 52.3 µM with MALME-3M melanoma; 40 µM in the test with A498 renal; 50.4 µM with U251 CNS; 32.2 µM with SK-MEL-5 melanoma. The compound also showed a TGI in the test with HCC-2998 colon of 45.5 µM.

Consider `CC1=NOC(=O)C1N=Nc1ccc(Br)c(C)c1` (centres undefined), for which the TGI in the test on CCRF-CEM leukemia was found to be 34.3 µM; in the test with HL-60(TB) leukemia, 23.8 µM; with MALME-3M melanoma, 33.3 µM; with SN12C renal it was 48.5 µM; with A498 renal, 36.2 µM; in the test with U251 CNS, 37.8 µM. The TGI in the test on SK-MEL-5 melanoma stood at 25.4 µM; with HCC-2998 colon, 60.6 µM.

On to `COC(=O)[C@]1(C)C(OC)=CC(=O)C2C1[C@H]1CCC[C@@H]21` (some centres undefined), for which the TGI in the test with CCRF-CEM leukemia, in the test with HL-60(TB) leukemia, in the test on MALME-3M melanoma, with SN12C renal, in the test on A498 renal and with U251 CNS was more than 100 µM in each case. For the same compound, the TGI in the test with LOX IMVI melanoma, in the test with SK-MEL-5 melanoma and in the test on HCC-2998 colon was more than 100 µM throughout.

Take `Cc1cccc(N=C2NC(=O)C(CC(=O)Nc3ccc(C)cc3C)S2)c1` (centres undefined): the TGI in the test with CCRF-CEM leukemia, in the test on HL-60(TB) leukemia, with MALME-3M melanoma, in the test with SN12C renal, with A498 renal and with U251 CNS was more than 100 µM each time. Besides, the TGI in the test on LOX IMVI melanoma, in the test with SK-MEL-5 melanoma and with HCC-2998 colon was more than 100 µM each time.

As for `O=C(CSc1nc(-c2ccccc2)c(-c2ccccc2)[nH]1)NNC(=S)Nc1ccccc1`, the TGI with CCRF-CEM leukemia, in the test with HL-60(TB) leukemia, in the test with MALME-3M melanoma, with SN12C renal, with A498 renal and in the test on U251 CNS was more than 100 µM each time. The TGI in the test on LOX IMVI melanoma, in the test on SK-MEL-5 melanoma and in the test with HCC-2998 colon was more than 100 µM each time.

With `COc1cc(C2c3cc4c(cc3[C@@H](OCCN(C)C)C3COC(=O)[C@H]23)OCO4)cc(OC)c1O` (some centres undefined), the TGI is more than 100 µM with HL-60(TB) leukemia; 1.87 µM with MALME-3M melanoma; 0.606 µM in the test with SN12C renal; 0.713 µM in the test with A498 renal; 1.27 µM with U251 CNS; 1.27 µM with LOX IMVI melanoma. The TGI with SK-MEL-5 melanoma is 1.42 µM.

With `Clc1ccc(-c2c(C3=NCCN3)nnn2-c2ccccc2)cc1`, the TGI with CCRF-CEM leukemia, with HL-60(TB) leukemia, with MALME-3M melanoma, in the test on SN12C renal, with A498 renal and with U251 CNS was more than 100 µM throughout. Moreover, the TGI in the test on LOX IMVI melanoma, with SK-MEL-5 melanoma and with HCC-2998 colon was more than 100 µM in each case.

Consider `CCC[CH2][Sn]1([CH2]CCC)[O]C(=O)c2ccc(N)cc2[O]1`, for which the GI50 is 0.0357 µM in the test with CCRF-CEM leukemia; 0.105 µM in the test with HL-60(TB) leukemia; 0.144 µM with MALME-3M melanoma; 0.88 µM in the test on SN12C renal; 0.278 µM in the test on A498 renal; 0.471 µM in the test with U251 CNS. The GI50 was 0.287 µM in the test with LOX IMVI melanoma, 0.692 µM in the test on SK-MEL-5 melanoma and 0.855 µM with HCC-2998 colon. For the same compound, the TGI in the test on CCRF-CEM leukemia turned out to be 1.85 µM; in the test with HL-60(TB) leukemia, 1.67 µM; in the test on MALME-3M melanoma, 1.18 µM; in the test with SN12C renal it was 2.37 µM; with A498 renal, 0.763 µM; in the test on U251 CNS, 1.81 µM. Also, the values for the TGI with LOX IMVI melanoma, with SK-MEL-5 melanoma and with HCC-2998 colon were 1.45 µM, 2.15 µM and 2.48 µM, respectively.

As usually defined, the TGI is the concentration giving total growth inhibition. A lower TGI goes with more potent growth arrest. As a reminder, the GI50 is the concentration at which growth is held to half of that of the control.
